From patent US7265152B2 (ViroPharma Incorporated, priority 2002, dated 2007)
Where two headings read alike, the source gives them in different places.

Tests used:
[1] = system: HCV replicon (BB7 sequence) in Huh-7-Clone A cells; assay: HCV replicon assay: ELISA of NS5A protein in replicon-containing cells (Inhibition of Viral RNA Replication); assay type: cell-based; details: Hepatitis C virus, read-out: Replicon
Procedure, shortened: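 EC50 taken from an 8-point serially diluted dose curve, with NS5A level as read-out: fixed cells probed with primary monoclonal and HRP-conjugated secondary, TMB developed 30 min, OD 650 nm. Compound exposure 72 h in Huh-7-Clone A replicon cells (BB7 sequence).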

[2] = molecular target: T1, HCV NS5B (Hepatitis C virus genotype 1b, UniProt Q9WMX2); assay: Inhibition of viral RNA-dependent RNA polymerase (RdRp), in vitro biochemical assay; set-up: species or system HCV genotype 1b virus (BB7); details: read-out: HCV pol-BB7 IC50
T1 construct: fusion protein, of which the carboxyl terminal 21 amino acids were removed to enhance its solubility; His tag (GSHHHHHH); made in house; host or cells: E. coli
Procedure, shortened: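 IC50 values are the concentrations that halve in vitro RNA synthesis by HCV NS5B polymerase. The enzyme was a C-terminally truncated (Δ21), His-tagged genotype 1b (BB7 consensus) protein purified from E. coli.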

[3] = HCV NS5B RdRp, BB7, reported as range class
[4] = Huh-7-Clone A, NS5A ELISA, 72-hour incubation, ranges of EC50
[5] = purified His-tagged NS5B (BB7), carboxyl terminal 21 amino acids removed
[6] = HCV replicon assay, ranges of EC50
[7] = HCV NS5B RdRp, BB7, class symbols A-D
[8] = ranges of EC50 in HCV replicon assay

What does the source list for `CNC(=O)c1c(-c2ccc(F)cc2)oc2cc(-c3cc(C)n(C)n3)c(OC(C)C)cc12` [Example 248, 6-(1,5-Dimethyl-1H-pyrazol-3-yl)-2-(4-fluoro-phenyl)-5-isopropoxy-benzofuran-3-carboxylic acid methylamide]?
EC50 ([1]; HCV replicon, range of EC50): < 10 µM; IC50 [2, 3]: 0.5 to 5 µM

What does the source list for `CNC(=O)c1c(-c2ccc(F)cc2)oc2cc(NC(C)=O)c(OC)cc12` [Example 18, 6-Acetylamino-2-(4-fluoro-phenyl)-5-methoxy-benzofuran-3-carboxylic acid methylamide]?
EC50 [1, 4]: < 1 µM; IC50 [2, 5]: ≤ 0.5 µM

With `CNC(=O)c1c(-c2ccc(F)cc2)oc2cc(N(Cc3csc(C)n3)S(C)(=O)=O)c(OC(C)C)cc12` [Example 271, 2-(4-Fluoro-phenyl)-5-isopropoxy-6-[methanesulfonyl-(2-methyl-thiazol-4-ylmethyl)-amino]-benzofuran-3-carboxylic acid methylamide] as the molecule, how does the EC50 [1, 6] read?
The EC50 was < 10 µM.

And the IC50 [2, 7]?
The IC50 was ≤ 0.5 µM.

For `CCN(c1cc2oc(-c3ccc(F)cc3)c(C(=O)NC)c2cc1OC(C)C)S(C)(=O)=O` [Example 255, 6-(Ethyl-methanesulfonyl-amino)-2-(4-fluoro-phenyl)-5-isopropoxy-benzofuran-3-carboxylic acid methylamide], which EC50 [1, 6] is on record?
Its EC50 is < 1 µM.

And the IC50 [2, 7]?
Its IC50 is ≤ 0.5 µM.

What does the source list for `CNC(=O)c1c(-c2ccc(F)cc2)oc2cc(N(CC3CC3)S(C)(=O)=O)c(OC(C)C)cc12` [Example 137, 6-(Cyclopropylmethyl-methanesulfonyl-amino)-2-(4-fluoro-phenyl)-5-isopropoxy-benzofuran-3-carboxylic acid methylamide]?
EC50 [1, 8]: < 1 µM; IC50 ([2]; HCV NS5B RdRp, BB7 genotype 1b): ≤ 0.5 µM

How did the EC50 [1, 4] turn out when `CNC(=O)c1c(-c2ccc(F)cc2)oc2ccc(OC(C)C)cc12` [Example 65, 2-(4-Fluoro-phenyl)-5-isopropoxy-benzofuran-3-carboxylic acid methylamide] was run?
Its EC50 is < 30 µM.

And the IC50 [2, 5]?
The IC50 was 0.5 to 5 µM.

What does the source list for `CNC(=O)c1c(-c2ccc(F)cc2)oc2cc(N(C)S(C)(=O)=O)c(OCc3nsc(NCC4CC4)n3)cc12` [Example 374, 5-[5-(Cyclopropylmethyl-amino)-[1,2,4]thiadiazol-3-ylmethoxy]-2-(4-fluoro-phenyl)-6-(methanesulfonyl-methyl-amino)-benzofuran-3-carboxylic acid methylamide]?
EC50 [1, 6]: < 1 µM; IC50 ([2]; HCV NS5B RdRp, BB7, activity class): ≤ 0.5 µM

Which results are given for `CNC(=O)c1c(-c2ccc(F)cc2)oc2cc(N3CCOCC3)c(OCc3cccc(C(=O)O)c3)cc12` [Example 268, 3-[2-(4-Fluoro-phenyl)-3-methylcarbamoyl-6-morpholin-4-yl-benzofuran-5-yloxymethyl]-benzoic acid]?
EC50 [1, 6]: < 10 µM; IC50 [2, 7]: ≤ 0.5 µM

`CNC(=O)c1c(-c2ccc(F)cc2)oc2cc(N3CCOCC3)c(OCc3noc(-c4ccc(OC)cc4)n3)cc12` [Example 214, 2-(4-Fluoro-phenyl)-5-[5-(4-methoxy-phenyl)-[1,2,4]oxadiazol-3-ylmethoxy]-6-morpholin-4-yl-benzofuran-3-carboxylic acid methylamide] was tested. Which EC50 ([1]; HCV replicon, range of EC50) did it give?
The EC50 was < 1 µM.

And the IC50 [2, 3]?
The IC50 was 0.5 to 5 µM.

`CNC(=O)c1c(-c2ccc(F)cc2)oc2cc(N(C)S(C)(=O)=O)c(OCc3cscn3)cc12` [Example 319, 2-(4-Fluoro-phenyl)-6-(methanesulfonyl-methyl-amino)-5-(thiazol-4-ylmethoxy)-benzofuran-3-carboxylic acid methylamide] was tested. Which EC50 [1, 6] did it give?
Its EC50 is < 1 µM.

What about the IC50 [2, 7] of the same molecule?
The IC50 was 0.5 to 5 µM.

What does the source list for `CNC(=O)c1c(-c2ccc(F)cc2)oc2cc(NCC(O)CO)c(OC(C)C)cc12` (stereo not shown) [Example 113, 6-(2,3-Dihydroxy-propylamino)-2-(4-fluoro-phenyl)-5-isopropoxy-benzofuran-3-carboxylic acid methylamide]?
EC50 [1, 8]: < 10 µM; IC50 ([2]; HCV NS5B RdRp, BB7 genotype 1b): 0.5 to 5 µM

`CNC(=O)c1c(-c2ccc(F)cc2)oc2cc(-c3cncs3)c(OC(C)C)cc12` [Example 227, 2-(4-Fluoro-phenyl)-5-isopropoxy-6-thiazol-5-yl-benzofuran-3-carboxylic acid methylamide] was tested. Which EC50 ([1]; HCV replicon, range of EC50) did it give?
The EC50 was < 1 µM.

And the IC50 [2, 3]?
The IC50 was ≤ 0.5 µM.

For `CNC(=O)c1c(-c2ccc(F)cc2)oc2cc(N3CCOCC3)c(OCc3ccccc3)cc12` [Example 117, 5-Benzyloxy-2-(4-fluoro-phenyl)-6-morpholin-4-yl-benzofuran-3-carboxylic acid methylamide], which EC50 [1, 8] is on record?
Its EC50 is < 1 µM.

What about the IC50 ([2]; HCV NS5B RdRp, BB7 genotype 1b) of the same molecule?
Its IC50 is ≤ 0.5 µM.

Which results are given for `CNC(=O)c1c(-c2ccc(F)cc2)oc2cc(C#N)c(OC)cc12` [Example 266, 6-Cyano-2-(4-fluoro-phenyl)-5-methoxy-benzofuran-3-carboxylic acid methylamide]?
EC50 [1, 6]: < 1 µM; IC50 [2, 7]: ≤ 0.5 µM

How did the EC50 [1, 6] turn out when `CNC(=O)c1c(-c2ccc(F)cc2)oc2cc(-c3cc(COC)on3)c(OC)cc12` [Example 313, 2-(4-Fluoro-phenyl)-5-methoxy-6-(5-methoxymethyl-isoxazol-3-yl)-benzofuran-3-carboxylic acid methylamide] was run?
The EC50 was < 1 µM.

And the IC50 [2, 7]?
The IC50 was ≤ 0.5 µM.

Which results are given for `CNC(=O)c1c(-c2ccc(F)cc2)oc2cc(NC)c(OC(C)C)cc12` [Example 19, 2-(4-Fluoro-phenyl)-5-isopropoxy-6-methylamino-benzofuran-3-carboxylic acid methylamide]?
EC50 [1, 4]: < 1 µM; IC50 [2, 5]: ≤ 0.5 µM

Which EC50 ([1]; HCV replicon, range of EC50) does the source give for `CNC(=O)c1c(-c2ccc(F)cc2)oc2cc(N3CCOCC3)c(OC(C)c3ccc(F)cc3)cc12` (stereo not shown) [Example 212, 2-(4-Fluoro-phenyl)-5-[1-(4-fluoro-phenyl)-ethoxy]-6-morpholin-4-yl-benzofuran-3-carboxylic acid methylamide] here?
Its EC50 is < 1 µM.

What about the IC50 [2, 3] of the same molecule?
The IC50 was ≤ 0.5 µM.

Which EC50 [1, 8] does the source give for `CNC(=O)c1c(-c2ccc(F)cc2)oc2cc(Nc3ccncc3)c(OC(C)C)cc12` [Example 131, 2-(4-Fluoro-phenyl)-5-isopropoxy-6-(pyridin-4-ylamino)-benzofuran-3-carboxylic acid methylamide] here?
Its EC50 is < 30 µM.

What about the IC50 ([2]; HCV NS5B RdRp, BB7 genotype 1b) of the same molecule?
The IC50 was 0.5 to 5 µM.

How did the EC50 [1, 6] turn out when `CNC(=O)c1c(-c2ccc(F)cc2)oc2cc(C3CNC(=O)C3C(=O)NC)c(OC)cc12` (stereo not shown) [Example 278, 4-[2-(4-Fluoro-phenyl)-5-methoxy-3-methylcarbamoyl-benzofuran-6-yl]-2-oxo-pyrrolidine-3-carboxylic acid methylamide] was run?
Its EC50 is < 10 µM.

And the IC50 [2, 7]?
Its IC50 is ≤ 0.5 µM.

What does the source list for `CNC(=O)c1c(-c2ccc(F)cc2)oc2cc(N3CCOCC3)c(OCc3cscn3)cc12` [Example 35, 2-(4-Fluoro-phenyl)-6-morpholin-4-yI-5-(thiazol-4-ylmethoxy)-benzofuran-3-carboxylic acid methylamide]?
EC50 [1, 4]: < 1 µM; IC50 [2, 5]: ≤ 0.5 µM

Which results are given for `CNC(=O)c1c(-c2ccc(F)cc2)oc2cc(-c3cc(C4CC4)on3)c(OC(C)C)cc12` [Example 274, 6-(5-Cyclopropyl-isoxazol-3-yl)-2-(4-fluoro-phenyl)-5-isopropoxy-benzofuran-3-carboxylic acid methylamide]?
EC50 [1, 6]: < 1 µM; IC50 [2, 7]: ≤ 0.5 µM

With `CNC(=O)c1c(-c2ccc(F)cc2)oc2cc(C(C)N(C)S(C)(=O)=O)c(OC)cc12` (stereo not shown) [Example 303, 2-(4-Fluoro-phenyl)-6-[1-(methanesulfonyl-methyl-amino)-ethyl]-5-methoxy-benzofuran-3-carboxylic acid methylamide] as the molecule, how does the EC50 [1, 6] read?
The EC50 was < 1 µM.

What about the IC50 [2, 7] of the same molecule?
The IC50 was ≤ 0.5 µM.

Which EC50 ([1]; HCV replicon assay, ranges of 50% effective concentration (EC50)) does the source give for `CNC(=O)c1c(-c2ccc(F)cc2)oc2cc(N(C)S(C)(=O)=O)c(OCC#N)cc12` [Example 395, 5-Cyanomethoxy-2-(4-fluoro-phenyl)-6-(methanesulfonyl-methyl-amino)-benzofuran-3-carboxylic acid methylamide] here?
Its EC50 is < 1 µM.

And the IC50 ([2]; HCV NS5B polymerase, BB7 (genotype 1b), values given as range classes A-D)?
The IC50 was ≤ 0.5 µM.
